# Measurements reported in US9708336B2, “Metallo-beta-lactamase inhibitors” (priority 2014, dated 2017).
# Like-named read-outs stand apart in the source and are kept apart here.
# Key:
# [1] = biological target: NDM-1 (Klebsiella pneumoniae, UniProt C7C422); test: biochemical; type: biochemical; details: read-out: NDM-1 IC50
# [2] = biological target: IMP-1 (Serratia marcescens, UniProt P52699); test: biochemical; type: biochemical; details: read-out: IMP-1 IC50
# [3] = biological target: VIM-1 (Pseudomonas aeruginosa (strain ATCC 15692 / DSM 22644 / CIP 104116 / JCM 14847 / LMG 12228 / 1C / PRS 101 / PAO1), UniProt A0A0F7KYQ8); test: Enzyme activity: determination of IC50, fluorescence assay with CCF2-FA substrate (VIM-1); type: biochemical
# [4] = system: Escherichia coli expressing NDM-1 (CLB30016); test: Antibiotic potentiation activity: synergistic concentration (MITC95) with imipenem, OD600 growth; type: cell-based; details: for Escherichia coli expressing NDM-1 (CLB 30016) MITC95: concentration giving 95% inhibition of bacterial growth
# Outline: (§1)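 In 1.1× CAMHB, clinical isolates from overnight plates were challenged with test compound alongside imipenem at an assay concentration of 4 μg/ml, sometimes 1 μg/ml. Plates sat covered at 35 °C for 22–24 h prior to spectrophotometric reading.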
# [5] = system: Klebsiella pneumoniae expressing VIM-1 (IHMA599644); test: as above; type: cell-based; details: for Klebsiella pneumoniae expressing VIM-1 (IHMA 599644) MITC95: concentration giving 95% inhibition of bacterial growth
# Outline: as §1
# [6] = system: Serratia marcescens expressing IMP-1 (CL5741); test: as above; type: cell-based; details: for Serratia marcescens expressing IMP-1 (CL5741) MITC95: concentration giving 95% inhibition of bacterial growth
# Outline: as §1
# [7] = NDM-1 enzyme, CCF2-FA substrate
# [8] = IMP-1 enzyme, CCF2-FA substrate
# [9] = VIM-1 enzyme, CCF2-FA substrate, read-out: VIM-1 IC50
# [10] = (CLB30016, NDM-1), 95% growth inhibition
# [11] = Klebsiella pneumoniae IHMA599644 (VIM-1), 95% growth inhibition
# [12] = Serratia marcescens CL5741 (IMP-1), 95% growth inhibition
# [13] = fluorescence assay with CCF2-FA substrate
# [14] = fluorescence assay with CCF2-FA substrate, read-out: VIM-1 IC50
# [15] = CLB30016 (NDM-1), 95% inhibition of bacterial growth
# [16] = IHMA599644 (VIM-1), 95% inhibition of bacterial growth
# [17] = CL5741 (IMP-1), 95% inhibition of bacterial growth
# [18] = VIM-1 IC50, fluorescence assay with CCF2-FA substrate
# [19] = NDM-1 enzyme, CCF2-FA fluorescence assay
# [20] = IMP-1 enzyme, CCF2-FA fluorescence assay
# [21] = Escherichia coli expressing NDM-1 (CLB30016), 95% growth inhibition
# [22] = Klebsiella pneumoniae expressing VIM-1 (IHMA599644), 95% growth inhibition
# [23] = Serratia marcescens expressing IMP-1 (CL5741), 95% growth inhibition
# [24] = VIM-1 IC50, VIM-1 enzyme, CCF2-FA substrate
# [25] = VIM-1 enzyme, CCF2-FA fluorescence assay, read-out: VIM-1 IC50
# IMP-1, sequence (P52699 whole entry, looked up): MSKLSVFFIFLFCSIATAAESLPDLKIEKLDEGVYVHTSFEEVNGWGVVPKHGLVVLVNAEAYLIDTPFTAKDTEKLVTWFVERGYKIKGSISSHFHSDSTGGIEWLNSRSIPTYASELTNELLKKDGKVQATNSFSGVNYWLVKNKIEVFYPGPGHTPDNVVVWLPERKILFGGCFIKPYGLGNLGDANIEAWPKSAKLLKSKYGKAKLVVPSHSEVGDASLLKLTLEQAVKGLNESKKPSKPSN
# NDM-1, sequence (C7C422 whole entry, looked up, species assumed): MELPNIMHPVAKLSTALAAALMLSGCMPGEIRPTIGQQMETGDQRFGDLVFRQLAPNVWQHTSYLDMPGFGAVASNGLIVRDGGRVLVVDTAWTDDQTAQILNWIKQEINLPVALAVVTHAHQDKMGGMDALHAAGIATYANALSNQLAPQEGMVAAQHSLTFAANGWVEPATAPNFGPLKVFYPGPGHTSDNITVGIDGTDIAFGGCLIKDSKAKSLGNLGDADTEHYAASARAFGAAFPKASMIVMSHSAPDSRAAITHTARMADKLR
smiles,measurement,setting,value
"NCC1CCC(N[C@H]2CC[C@H](c3ccc(C(F)(F)F)c(S(N)(=O)=O)c3-c3nnn[nH]3)CC2)CC1 (stereo partly drawn) [Example 699, 3-(4-{[4-(aminomethyl)cyclohexyl]amino}cyclohexyl)-2-(1H-tetrazol-5-yl)-6-(trifluoromethyl)benzene sulfonamide]",IC50,[1]; [7],0.018 µM
same,IC50,[2]; [8],0.0588 µM
same,IC50,[3]; [9],0.00472 µM
same,Escherichia coli MITC95,[4]; [10],3.125 µM
same,Klebsiella pneumoniae MITC95,[5]; [11],6.25 µM
same,Serratia marcescens MITC95,[6]; [12],6.25 µM
"NC1CCN(c2ccc(C(F)(F)F)c(S(N)(=O)=O)c2-c2nnn[nH]2)CC1 [Example 778, 3-(4-amino-1-piperidyl)-2-(1H-tetrazol-5-yl)-6-(trifluoromethyl) benzenesulfonamide]",IC50,[1]; [13],0.147 µM
same,IC50,[2]; [13],0.16 µM
same,IC50,[3]; [14],0.000688 µM
same,Escherichia coli MITC95,[4]; [15],3.125 µM
same,Klebsiella pneumoniae MITC95,[5]; [16],1.172 µM
same,Serratia marcescens MITC95,[6]; [17],1.563 µM
"NS(=O)(=O)c1nccc(N2CCC(Cc3ccncc3)CC2)c1-c1nnn[nH]1 [Example 238, 4-[4-(pyridin-4-ylmethyl)piperidin-1-yl]-3-(1H-tetrazol-5-yl)pyridine-2-sulfonamide]",IC50,[1]; [13],0.0308 µM
same,IC50,[2]; [13],0.189 µM
same,IC50,[3]; [18],0.0969 µM
same,Escherichia coli expressing NDM-1 (CLB 30016) MITC95,[4],3.125 µM
same,Klebsiella pneumoniae expressing VIM-1 (IHMA 599644) MITC95,[5],125 µM
same,Serratia marcescens expressing IMP-1 (CL5741) MITC95,[6],9.375 µM
"Nc1ncc(-c2ccc(C(F)(F)F)c(S(N)(=O)=O)c2-c2nnn[nH]2)cn1 [Example 475, 3-(2-aminopyrimidin-5-yl)-2-(1H-tetrazol-5-yl)-6-(trifluoromethyl)benzenesulfonamide]",IC50,[1]; [19],0.00513 µM
same,IC50,[2]; [20],0.0137 µM
same,IC50,"[3]; VIM-1 IC50, VIM-1 enzyme, CCF2-FA fluorescence assay",0.00192 µM
same,Escherichia coli MITC95,[4]; [21],0.7813 µM
same,Klebsiella pneumoniae MITC95,[5]; [22],3.125 µM
same,Serratia marcescens MITC95,[6]; [23],0.7813 µM
"NS(=O)(=O)c1c(C(F)(F)F)ccc(-c2ccc3c(c2)CCNC3)c1-c1nnn[nH]1 [Example 721, 3-(1,2,3,4-tetrahydroisoquinolin-6-yl)-2-(1H-tetrazol-5-yl)-6-(trifluoromethyl)benzenesulfon-amide]",IC50,[1]; [7],0.00302 µM
same,IC50,[2]; [8],0.00918 µM
same,IC50,[3]; [9],0.000807 µM
same,Escherichia coli MITC95,[4]; [10],6.25 µM
same,Klebsiella pneumoniae MITC95,[5]; [11],1.563 µM
same,Serratia marcescens MITC95,[6]; [12],6.25 µM
"NS(=O)(=O)c1cccc(C2CCCc3ncccc32)c1-c1nn[nH]n1 (stereo not drawn) [Example 519, 3-(5,6,7,8-Tetrahydroquinolin-5-yl)-2-(2H-tetrazol-5-yl)benzenesulfonamide]",IC50,[1]; [7],0.00378 µM
same,IC50,[2]; [8],0.766 µM
same,IC50,[3]; [24],0.0246 µM
same,Escherichia coli MITC95,[4]; [10],1.563 µM
same,Klebsiella pneumoniae MITC95,[5]; [11],37.5 µM
same,Serratia marcescens MITC95,[6]; [12],100 µM
"NC1Cc2cccc(-c3ccc(C(F)(F)F)c(S(N)(=O)=O)c3-c3nnn[nH]3)c2C1 (stereo not drawn) [Example 836, 3-(2-aminoindan-4-yl)-2-(1H-tetrazol-5-yl)-6-(trifluoromethyl)benzenesulfonamide]",IC50,[1]; [13],0.0549 µM
same,IC50,[2]; [13],0.134 µM
same,IC50,[3]; [14],0.00239 µM
same,Escherichia coli MITC95,[4]; [15],2.344 µM
same,Klebsiella pneumoniae MITC95,[5]; [16],1.563 µM
same,Serratia marcescens MITC95,[6]; [17],4.688 µM
"NC(=O)CCc1ccc(-c2cccc3sc(N)nc23)c(-c2nn[nH]n2)c1S(N)(=O)=O [Example 539, 3-(4-(2-Aminobenzo[d]thiazol-4-yl)-2-sulfamoyl-3-(2H-tetrazol-5-yl)phenyl)propanamide]",IC50,[1]; [7],0.000192 µM
same,IC50,[2]; [8],0.00762 µM
same,IC50,[3]; [9],0.00185 µM
same,Escherichia coli MITC95,[4]; [10],3.125 µM
same,Klebsiella pneumoniae MITC95,[5]; [11],25 µM
same,Serratia marcescens MITC95,[6]; [12],12.5 µM
"NS(=O)(=O)c1cccc(-c2ccc(NCCO)nc2)c1-c1nn[nH]n1 [Example 426, 3-(6-((2-hydroxyethyl)amino)pyridin-3-yl)-2-(2H-tetrazol-5-yl)benzenesulfonamide]",IC50,[1]; [19],0.00928 µM
same,IC50,[2]; [20],0.353 µM
same,IC50,[3]; [25],0.26 µM
same,Escherichia coli MITC95,[4]; [21],0.4063 µM
same,Klebsiella pneumoniae MITC95,[5]; [22],25 µM
same,Serratia marcescens MITC95,[6]; [23],9.375 µM
"NC1(C2CCN(c3ccc(C(F)(F)F)c(S(N)(=O)=O)c3-c3nnn[nH]3)C2)CC1 (stereo not drawn) [Example 766, 3-[3-(1-aminocyclopropyl)pyrrolidin-1-yl]-2-(1H-tetrazol-5-yl)-6-(trifluoromethyl) benzenesulfonamide]",IC50,[1]; [13],0.134 µM
same,IC50,[2]; [13],0.12 µM
same,IC50,[3]; [18],0.00852 µM
same,Escherichia coli MITC95,[4]; [15],25 µM
same,Klebsiella pneumoniae MITC95,[5]; [16],12.5 µM
same,Serratia marcescens MITC95,[6]; [17],25 µM
"Cc1cc2nccn2cc1-c1cccc(S(N)(=O)=O)c1-c1nnn[nH]1 [Example 115, 3-(7-methylimidazo[1,2-a]pyridin-6-yl)-2-(1H-tetrazol-5-yl)benzenesulfonamide]",IC50,[1]; [13],0.00781 µM
same,IC50,[2]; [13],0.543 µM
same,IC50,[3]; [18],0.0544 µM
same,Escherichia coli expressing NDM-1 (CLB 30016) MITC95,[4],0.25 µM
same,Klebsiella pneumoniae expressing VIM-1 (IHMA 599644) MITC95,[5],37.5 µM
same,Serratia marcescens expressing IMP-1 (CL5741) MITC95,[6],18.75 µM
"N=C(N)NC1CCN(c2ccc(C(F)(F)F)c(S(N)(=O)=O)c2-c2nnn[nH]2)CC1 [Example 824, 1-[1-[3-sulfamoyl-2-(1H-tetrazol-5-yl)-4-(trifluoromethyl)phenyl]-4-piperidyl]guanidine]",IC50,[1]; [13],0.0531 µM
same,IC50,[2]; [13],0.0592 µM
same,IC50,[3]; [14],0.000702 µM
same,Escherichia coli MITC95,[4]; [15],1.563 µM
same,Klebsiella pneumoniae MITC95,[5]; [16],0.7813 µM
same,Serratia marcescens MITC95,[6]; [17],0.7813 µM
"N#Cc1cccc(Cc2cccc(S(N)(=O)=O)c2-c2nnn[nH]2)c1 [Example 152, 3-(3-cyanobenzyl)-2-(1H-tetrazol-5-yl)benzenesulfonamide]",IC50,[1]; [13],0.0142 µM
same,IC50,[2]; [13],0.252 µM
same,IC50,[3]; [14],0.0914 µM
same,Escherichia coli expressing NDM-1 (CLB 30016) MITC95,[4],4.688 µM
same,Klebsiella pneumoniae expressing VIM-1 (IHMA 599644) MITC95,[5],200 µM
same,Serratia marcescens expressing IMP-1 (CL5741) MITC95,[6],12.5 µM
"NC[C@H]1CC[C@H](Cc2ccc(-c3ccc(C4CCNCC4)cc3)c(-c3nn[nH]n3)c2S(N)(=O)=O)CC1 [Example 457, 4-(((1r,4r)-4-(aminomethyl)cyclohexyl)methyl)-4′-(piperidin-4-yl)-2-(2H-tetrazol-5-yl)-[1,1′-biphenyl]-3-sulfonamide]",IC50,[1]; [19],0.0011 µM
same,IC50,[2]; [20],0.00305 µM
same,IC50,[3]; [25],0.000803 µM
same,Escherichia coli MITC95,[4]; [21],0.3906 µM
same,Klebsiella pneumoniae MITC95,[5]; [22],1.172 µM
same,Serratia marcescens MITC95,[6]; [23],0.1953 µM
"NC1CC(N[C@H]2CC[C@H](c3ccc(C(F)(F)F)c(S(N)(=O)=O)c3-c3nnn[nH]3)CC2)C1 (stereo partly drawn) [Example 694, 3-{4-[(3-aminocyclobutyl)amino]cyclohexyl}-2-(1H-tetrazol-5-yl)-6-(trifluoromethyl)benzene sulfonamide]",IC50,[1]; [7],0.00484 µM
same,IC50,[2]; [8],0.0186 µM
same,IC50,[3]; [24],0.00246 µM
same,Escherichia coli MITC95,[4]; [10],0.3906 µM
same,Klebsiella pneumoniae MITC95,[5]; [11],1.563 µM
same,Serratia marcescens MITC95,[6]; [12],1.563 µM
"NS(=O)(=O)c1cccc(-c2ccc(N3CC(CN4CCCC4)C3)nc2)c1-c1nnn[nH]1 [Example 630, 3-[6-[3-(pyrrolidin-1-ylmethyl)azetidin-1-yl]-3-pyridyl]-2-(1H-tetrazol-5-yl)benzenesulfonamide]",IC50,[1]; [7],0.0323 µM
same,IC50,[2]; [8],0.388 µM
same,IC50,[3]; [9],0.635 µM
same,Escherichia coli MITC95,[4]; [10],1.172 µM
same,Klebsiella pneumoniae MITC95,[5]; [11],50 µM
same,Serratia marcescens MITC95,[6]; [12],12.5 µM
"NCCCCN1CCN(c2ccc(C(F)(F)F)c(S(N)(=O)=O)c2-c2nnn[nH]2)CC1 [Example 765, 3-[4-(4-aminobutyl)piperazin-1-yl]-2-(1H-tetrazol-5-yl)-6-(trifluoromethyl) benzenesulfonamide]",IC50,[1]; [13],0.0933 µM
same,IC50,[2]; [13],0.131 µM
same,IC50,[3]; [14],0.125 µM
same,Escherichia coli MITC95,[4]; [15],6.25 µM
same,Klebsiella pneumoniae MITC95,[5]; [16],25 µM
same,Serratia marcescens MITC95,[6]; [17],3.125 µM
"NCCCNc1nc2c(-c3cccc(S(N)(=O)=O)c3-c3nnn[nH]3)cccc2s1 [Example 643, 3-[2-(3-aminopropylamino)-1,3-benzothiazol-4-yl]-2-(1H-tetrazol-5-yl)benzenesulfonamide]",IC50,[1]; [7],0.00234 µM
same,IC50,[2]; [8],0.101 µM
same,IC50,[3]; [9],0.0123 µM
same,Escherichia coli MITC95,[4]; [10],1.563 µM
same,Klebsiella pneumoniae MITC95,[5]; [11],25 µM
same,Serratia marcescens MITC95,[6]; [12],25 µM
"NS(=O)(=O)c1cccc(-c2ccc(CN3CCOCC3)cc2)c1-c1nnn[nH]1 [Example 341, 4′-(morpholin-4-ylmethyl)-2-(1H-tetrazol-5-yl)biphenyl-3-sulfonamide]",IC50,[1]; [19],0.00294 µM
same,IC50,[2]; [20],0.0221 µM
same,IC50,[3]; [25],0.786 µM
same,Escherichia coli MITC95,[4]; [21],0.7813 µM
same,Klebsiella pneumoniae MITC95,[5]; [22],>200 µM
same,Serratia marcescens MITC95,[6]; [23],1.172 µM
